Type in all cases: cell-based
For one assay, the target named is T1, IKZF1 (Homo sapiens, UniProt Q13422+Q96SW2).
T1 construct: expressed in transfected cells
Put plainly: HEK293 HiBiT in vitro degradation of IKZF1. As to conditions: for Dmax: HEK293, HEK293 HiBiT, maximum degradation at the highest concentration tested; for DC50: HEK293 HiBiT, 18-24 hr incubation, normalized to DMSO control, read-out: IKZF1 EC50. In outline: (§1)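 Read-out: Nano-Glo lytic HiBiT luminescence after 18-24 h compound exposure at 37 °C, fitted to EC50 and Dmax. Cells were Flp-In T-REx HEK293 expressing linker-HiBiT fused to the C-terminus of each target, doxycycline-induced ([…] final) overnight beforehand.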

A further assay has as its target T2, SALL4 (Homo sapiens, UniProt Q96SW2+Q9UJQ4).
T2 construct: expressed in transfected cells
Kind of assay: HEK293 HiBiT in vitro degradation of SALL4. As to conditions: for DC50: 18-24 hr incubation, normalized to DMSO control, read-out: SALL4 EC50. Summed up:
as §1

In assay [1] the test system is IL-2 production in Jurkat cells. Put plainly: Jurkat IL-2 functional assay (ELISA of supernatants). As to conditions: Homo sapiens; for maximal fold induction: Jurkat, top of the curve fit; for EC50: overnight incubation. The method, then: (§2) Jurkat cell line (ATCC, Clone E6-1), highly expresses IKZF2 and lends it an appropriate system to screen degradation along with a functional readout. Jurkat cells were grown to 80% confluency in TC medium (RPMI containing glutamax, 10% FBS, 1% NEAA, and 1% Pen/Strep Glutamin in tissue culture flasks.
(§3) The cells were spun down at 400 g for 5 mins and counted. 100 K cells per well were added to a 96-well plate. The compounds were introduced starting at 10 μM and dilutions were made 1:10 for each compound. 100 μL of compound was added to each well for a 12-point titration. The cells were incubated at 37° C. with 5% CO2 overnight.
The following day, supernatants were collected for a functional readout using ELISA. The supernatants were diluted 1:2 and added to appropriate Human IL-2 plates for IL-2 functional readout.
The top of the curve fit for each compound is reported as the IL-2 ‘fold increase over DMSO control.’
(ELISA stands for enzyme-linked immunosorbent assay.)

Assay [2] has as its target T3, IKZF2 (Homo sapiens, UniProt Q96SW2+Q9UKS7). Kind of assay: Human whole blood IKZF2 degradation (flow cytometry, CD4/CD25/Foxp3+ Treg cells). Also noted: endogenous in cells. As to conditions: for Dmax / DC50: 24 hrs incubation, IKZF2 MFI in CD4/CD25/Foxp3+ Treg cells, flow cytometry; for DC50: read-out: IKZF2 EC50. In outline:
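Fresh healthy-donor human whole blood stimulated with CD3/CD28 activator and serially diluted compound for 24 hrs at 37° C. IKZF2 MFI in CD4/CD25/Foxp3+ Tregs (IKZF1 MFI in CD4+ T cells) measured by flow cytometry after RBC lysis, fixation, permeabilization. EC50 and Dmax versus DMSO wells.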
Target sequence in this assay (Q9UKS7 whole entry): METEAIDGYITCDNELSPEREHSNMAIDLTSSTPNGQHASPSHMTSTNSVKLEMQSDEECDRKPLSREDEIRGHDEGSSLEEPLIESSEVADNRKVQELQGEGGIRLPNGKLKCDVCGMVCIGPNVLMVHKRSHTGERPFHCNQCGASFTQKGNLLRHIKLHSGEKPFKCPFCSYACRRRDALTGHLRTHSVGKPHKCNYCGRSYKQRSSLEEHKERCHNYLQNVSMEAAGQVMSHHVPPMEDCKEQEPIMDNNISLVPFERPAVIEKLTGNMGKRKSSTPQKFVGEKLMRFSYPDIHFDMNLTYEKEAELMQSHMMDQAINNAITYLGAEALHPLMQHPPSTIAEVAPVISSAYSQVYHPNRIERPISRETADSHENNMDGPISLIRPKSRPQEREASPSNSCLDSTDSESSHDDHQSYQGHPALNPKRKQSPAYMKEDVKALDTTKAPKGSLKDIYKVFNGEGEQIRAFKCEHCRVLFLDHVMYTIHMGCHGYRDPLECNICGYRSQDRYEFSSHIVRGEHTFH
Target sequence in this assay (Q96SW2 whole entry): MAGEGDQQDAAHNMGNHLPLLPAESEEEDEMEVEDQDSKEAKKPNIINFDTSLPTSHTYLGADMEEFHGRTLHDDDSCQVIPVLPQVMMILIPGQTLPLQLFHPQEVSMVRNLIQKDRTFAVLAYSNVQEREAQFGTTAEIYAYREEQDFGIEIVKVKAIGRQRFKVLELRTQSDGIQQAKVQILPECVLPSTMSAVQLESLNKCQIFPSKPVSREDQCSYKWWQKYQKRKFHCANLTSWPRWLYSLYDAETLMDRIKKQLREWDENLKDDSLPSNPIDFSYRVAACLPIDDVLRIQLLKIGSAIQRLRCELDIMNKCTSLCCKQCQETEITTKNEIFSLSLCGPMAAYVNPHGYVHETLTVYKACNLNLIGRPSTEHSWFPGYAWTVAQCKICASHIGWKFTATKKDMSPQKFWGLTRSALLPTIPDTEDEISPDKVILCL
Target sequence in this assay (Q16531 whole entry partner): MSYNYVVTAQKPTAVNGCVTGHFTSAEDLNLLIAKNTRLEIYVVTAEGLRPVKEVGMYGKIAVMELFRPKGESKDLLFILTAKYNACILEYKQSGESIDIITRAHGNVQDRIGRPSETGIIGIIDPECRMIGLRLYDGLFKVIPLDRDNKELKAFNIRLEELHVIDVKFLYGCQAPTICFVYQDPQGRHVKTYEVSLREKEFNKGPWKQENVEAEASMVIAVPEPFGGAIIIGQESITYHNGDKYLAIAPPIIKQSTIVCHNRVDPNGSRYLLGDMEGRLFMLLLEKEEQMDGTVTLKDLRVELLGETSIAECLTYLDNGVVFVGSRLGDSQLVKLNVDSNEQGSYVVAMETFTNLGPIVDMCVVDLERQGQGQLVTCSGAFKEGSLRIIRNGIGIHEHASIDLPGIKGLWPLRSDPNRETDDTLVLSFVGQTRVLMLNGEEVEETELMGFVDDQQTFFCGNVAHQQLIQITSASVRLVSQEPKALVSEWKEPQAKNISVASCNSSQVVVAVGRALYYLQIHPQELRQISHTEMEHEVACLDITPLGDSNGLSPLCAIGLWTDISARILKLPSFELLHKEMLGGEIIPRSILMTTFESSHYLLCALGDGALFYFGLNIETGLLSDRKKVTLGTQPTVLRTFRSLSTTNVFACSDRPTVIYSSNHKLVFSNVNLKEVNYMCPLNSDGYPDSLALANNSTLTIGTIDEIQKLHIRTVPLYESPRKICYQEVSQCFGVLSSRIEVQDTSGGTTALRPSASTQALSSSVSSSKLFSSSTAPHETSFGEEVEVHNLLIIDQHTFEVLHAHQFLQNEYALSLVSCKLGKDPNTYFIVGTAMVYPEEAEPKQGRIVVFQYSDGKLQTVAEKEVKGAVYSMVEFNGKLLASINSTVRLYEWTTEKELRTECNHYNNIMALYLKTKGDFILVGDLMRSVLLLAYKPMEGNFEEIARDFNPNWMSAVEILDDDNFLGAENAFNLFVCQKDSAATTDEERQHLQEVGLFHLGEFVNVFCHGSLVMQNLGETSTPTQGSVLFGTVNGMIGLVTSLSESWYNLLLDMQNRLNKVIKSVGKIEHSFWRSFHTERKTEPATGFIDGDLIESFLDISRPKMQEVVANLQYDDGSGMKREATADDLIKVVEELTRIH
For orientation: A flow cytometer gives signals particle by particle.

For assay [3], the target named is T3, IKZF2. Put plainly: Jurkat IKZF2 degradation (flow cytometry). As to conditions: Jurkat cells, overnight incubation; for DC50: flow cytometry, normalized to DMSO control, read-out: IKZF2 Degradation EC50; for Dmax: maximum degradation at the highest concentration tested. Also noted: endogenous in cells. The method, then:
as §2, §3
Target sequence in this assay (Q9UKS7 whole entry): as the sequence (Q9UKS7 whole entry) above
Target sequence in this assay (Q96SW2 whole entry): as the sequence (Q96SW2 whole entry) above
Target sequence in this assay (Q16531 whole entry partner): as the sequence (Q16531 whole entry partner) above
Cells were stained with appropriate surface and intracellular antibodies and acquired by flow cytometry and analysed for degradation. […]

Assay [4] addresses T3, IKZF2. Put plainly: HEK293 HiBiT in vitro degradation of IKZF2. Also noted: expressed in transfected cells. As to conditions: for Dmax: HEK293, HEK293 HiBiT; for DC50: 18-24 hr incubation, normalized to DMSO control, read-out: IKZF2 EC50. Summed up:
as §1
Target sequence in this assay (Q9UKS7 1-500 isoform Q9UKS7-2): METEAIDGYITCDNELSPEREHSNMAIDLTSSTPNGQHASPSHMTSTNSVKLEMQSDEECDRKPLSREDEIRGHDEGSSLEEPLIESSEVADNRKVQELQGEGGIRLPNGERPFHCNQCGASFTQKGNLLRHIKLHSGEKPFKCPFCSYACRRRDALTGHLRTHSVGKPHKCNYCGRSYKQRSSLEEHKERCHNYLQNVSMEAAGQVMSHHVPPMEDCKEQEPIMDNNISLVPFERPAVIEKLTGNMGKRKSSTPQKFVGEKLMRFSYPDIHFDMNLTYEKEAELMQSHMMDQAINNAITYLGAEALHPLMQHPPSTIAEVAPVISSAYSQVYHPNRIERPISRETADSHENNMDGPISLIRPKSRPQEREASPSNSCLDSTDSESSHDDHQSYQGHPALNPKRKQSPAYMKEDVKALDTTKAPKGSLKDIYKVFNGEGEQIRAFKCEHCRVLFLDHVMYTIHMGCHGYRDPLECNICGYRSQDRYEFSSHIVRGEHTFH
Target sequence in this assay (Q96SW2 whole entry): as the sequence (Q96SW2 whole entry) above
Target sequence in this assay (Q16531 whole entry partner): as the sequence (Q16531 whole entry partner) above
A general note: With HiBiT, luminescence reflects the tagged protein that the partner subunit can reach.

For assay [5], the target named is T3, IKZF2. Put plainly: HEK293 IKZF2 degradation kinetics (HiBiT, timepoints 1-24 h). Also noted: expressed in transfected cells. As to conditions: for kinact: HEK293, IKZF2, timepoints 1, 2, 3, 4.5 and 24 hour, read-out: Maximum degradation rate Kinact (converted). The method, then:
The assay technology and principles for evaluating IKZF2 degradation kinetics in HEK293 cells was identical to the HEK293 degradation assay as described above. Additional details are briefly described below.
On Day 1, Cells were grown and induced the same as described above. On Days 2 and 3, compounds for testing were dispensed via ECHO and cells were lifted and plated into compound-spotted assay plates as above. Plates were returned to the 37° C. incubator until addition of Nano-Glo lytic reagent at 1, 2, 3, 4.5, and 24 hour timepoints. At these timepoints, plates were read on Envision reader as above.
All raw data was normalized to DMSO control (final concentration: 0.5%) wells as POC and plotted out as a function of time to generate the degradation rate constant (K) value. The maximum degradation rate (Kinact) was determined by plotting the K value as a function of concentration for each compound tested. Kinact values are shown in Table 25 and the degradation rate plots as well as timecourse of degradation are shown for select compounds in FIG. 1A, FIG. 1B, FIG. 2A and FIG. 2B.
Target sequence in this assay (Q9UKS7 1-500 isoform Q9UKS7-2): as the sequence (Q9UKS7 1-500 isoform Q9UKS7-2) above
Target sequence in this assay (Q96SW2 whole entry): as the sequence (Q96SW2 whole entry) above
Target sequence in this assay (Q16531 whole entry partner): as the sequence (Q16531 whole entry partner) above

Where [6] appears, read: ELISA of supernatants, read-out: IL-2 Production Fold increase over DMSO control.
Setting [7] is: read-out: increase in IL-2 production relative to DMSO control.
Setting [8] is: maximum degradation at the highest concentration tested.

Molecules are shown by their SMILES. Like-named read-outs stand apart in the source and are kept apart here.

T2 sequence (Q9UJQ4 whole entry): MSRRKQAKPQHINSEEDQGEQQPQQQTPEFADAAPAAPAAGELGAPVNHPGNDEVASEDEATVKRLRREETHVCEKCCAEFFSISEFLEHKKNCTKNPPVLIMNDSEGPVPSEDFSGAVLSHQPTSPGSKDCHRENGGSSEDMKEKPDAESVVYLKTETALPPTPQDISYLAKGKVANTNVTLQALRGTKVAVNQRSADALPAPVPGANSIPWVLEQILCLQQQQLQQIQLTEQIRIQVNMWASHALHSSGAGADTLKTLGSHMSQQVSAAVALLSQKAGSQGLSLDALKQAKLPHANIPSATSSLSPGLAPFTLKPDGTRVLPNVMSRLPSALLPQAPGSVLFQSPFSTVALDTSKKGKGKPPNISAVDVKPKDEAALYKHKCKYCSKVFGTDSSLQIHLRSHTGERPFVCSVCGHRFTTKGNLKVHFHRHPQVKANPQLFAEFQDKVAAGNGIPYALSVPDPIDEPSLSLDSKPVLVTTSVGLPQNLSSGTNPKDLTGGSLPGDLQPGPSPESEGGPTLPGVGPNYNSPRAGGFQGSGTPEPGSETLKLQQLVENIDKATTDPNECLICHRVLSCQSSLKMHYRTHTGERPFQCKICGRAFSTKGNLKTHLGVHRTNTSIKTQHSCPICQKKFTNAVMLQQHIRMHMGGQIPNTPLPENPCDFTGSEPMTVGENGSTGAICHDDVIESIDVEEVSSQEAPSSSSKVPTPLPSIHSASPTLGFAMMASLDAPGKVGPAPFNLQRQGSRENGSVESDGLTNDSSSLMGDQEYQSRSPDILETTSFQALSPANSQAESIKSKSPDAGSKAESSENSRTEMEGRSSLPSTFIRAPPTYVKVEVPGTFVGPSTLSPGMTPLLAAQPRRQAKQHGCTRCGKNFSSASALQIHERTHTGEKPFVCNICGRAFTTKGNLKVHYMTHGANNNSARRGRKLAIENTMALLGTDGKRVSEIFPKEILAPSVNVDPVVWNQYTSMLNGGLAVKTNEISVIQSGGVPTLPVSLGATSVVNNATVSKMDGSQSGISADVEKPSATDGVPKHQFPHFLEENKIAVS
T2 sequence (Q96SW2 whole entry): as the sequence (Q96SW2 whole entry) above
T2 sequence (Q16531 whole entry partner): as the sequence (Q16531 whole entry partner) above
T1 sequence (Q13422 whole entry): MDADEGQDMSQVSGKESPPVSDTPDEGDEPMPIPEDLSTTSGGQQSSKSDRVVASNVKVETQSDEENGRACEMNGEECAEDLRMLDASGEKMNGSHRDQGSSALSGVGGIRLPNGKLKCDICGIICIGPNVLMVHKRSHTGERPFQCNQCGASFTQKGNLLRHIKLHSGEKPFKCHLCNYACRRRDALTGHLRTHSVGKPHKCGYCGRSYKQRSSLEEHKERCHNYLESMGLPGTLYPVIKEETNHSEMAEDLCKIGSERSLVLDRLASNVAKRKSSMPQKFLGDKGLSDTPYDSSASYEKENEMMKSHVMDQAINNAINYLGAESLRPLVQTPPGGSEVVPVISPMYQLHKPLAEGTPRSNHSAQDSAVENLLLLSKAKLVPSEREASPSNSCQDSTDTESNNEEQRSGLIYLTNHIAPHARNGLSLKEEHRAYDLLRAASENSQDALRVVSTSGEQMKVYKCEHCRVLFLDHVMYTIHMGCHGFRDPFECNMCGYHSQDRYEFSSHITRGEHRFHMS
T1 sequence (Q96SW2 whole entry): as the sequence (Q96SW2 whole entry) above
T1 sequence (Q16531 whole entry partner): as the sequence (Q16531 whole entry partner) above

For `O=C1CCC(N2Cc3cc(C[C@H]4CCCC[C@@H]4NC4CCC(F)(F)CC4)ccc3C2=O)C(=O)N1` (stereo partly drawn) [Example 46, 3-(5-(((1R,2S)-2-((4,4-difluorocyclohexyl)amino)cyclohexyl)methyl)-1-oxoisoindolin-2-yl)piperidine-2,6-dione], the Dmax on IKZF1 worked out at 29%; on IKZF2 [2], 96%; at IKZF2 [3], 95%; on IKZF2 [4] (setting [8]) it was 94%. Also, the DC50 on IKZF1 was 33 nM; on SALL4, > 10000 nM; at IKZF2 [2], 3 nM; on IKZF2 [3] it was 2 nM; on IKZF2 [4] (HEK293 HiBiT), 1 nM. Further, the maximal fold induction in assay [1] (setting [6]) is 2.7; in assay [1] (setting [7]), ≥ 1.9. Also, the EC50 in assay [1] (ELISA of supernatants) worked out at 3.5 nM. Also, the “IKZF2 degradation potency compared with Reference Compound B-4” value on IKZF2 [2] (24 hrs) is reported as “more potent”. For the same compound, the “speed of IKZF2 degradation compared with Reference Compounds A-1, B-3, B-4, C-1” value on IKZF2 [5] (HEK293) is given as “faster degradation of IKZF2”. Further, on IKZF2 [5], the kinact was 0.000158 s⁻¹.

For the compound `O=C1CC[C@H](N2Cc3cc(C[C@H]4CCCC[C@@H]4NC4CCC(F)(F)CC4)ccc3C2=O)C(=O)N1` (single isomer, unassigned) [Example 328], the Dmax came to 62% on IKZF1, 94% on IKZF2 [2], 96% at IKZF2 [3] and 98% at IKZF2 [4] (setting [8]). The DC50 was 22 nM on IKZF1; > 10000 nM at SALL4; 2 nM at IKZF2 [2]; 0.4 nM at IKZF2 [3]; 1 nM on IKZF2 [4] (HEK293 HiBiT). Also, the maximal fold induction in assay [1] (setting [6]) was 2.7; in assay [1] (setting [7]), ≥ 1.9. For the same compound, in assay [1] (ELISA of supernatants), a half-maximal response (EC50) required 3.4 nM. Besides, the kinact at IKZF2 [5] is 0.000175 s⁻¹.

In the case of `O=C1CCC(N2Cc3c(ccc(C[C@H]4OCCC[C@@H]4NC4CCC(C(F)F)CC4)c3F)C2=O)C(=O)N1` (single isomer, unassigned) [Example 283], the figures for the Dmax at IKZF1, at IKZF2 [2] and at IKZF2 [3] were 26%, 96% and 90%, respectively. The DC50 was 92 nM at IKZF1; > 10000 nM on SALL4; 5 nM on IKZF2 [2]; 1.4 nM on IKZF2 [3]; 4 nM on IKZF2 [4] (HEK293 HiBiT). In addition, the maximal fold induction in assay [1] (setting [6]) is 2.1; in assay [1] (setting [7]) it was ≥ 1.9. A half-maximal response in assay [1] (ELISA of supernatants) (EC50) required 1.9 nM. For the same compound, the “IKZF2 Dmax” value at IKZF2 [4] (HEK293 HiBiT, maximum degradation at the highest concentration tested) stood at 98%. Also, the kinact on IKZF2 [5] was 9.44e-05 s⁻¹.

On to `O=C1CCC(N2Cc3cc(C4CCC(Cc5ccccc5)CC4)ccc3C2=O)C(=O)N1` (centres unmarked) [Example A-1], for which the Dmax at SALL4 (setting [8]) amounted to 63%; at IKZF2 [2] it was 82%; on IKZF2 [3], 61%; on IKZF2 [4] (setting [8]), 82%. For the same compound, the maximal fold induction in assay [1] (setting [6]) is 1.6. The compound also returned an EC50 in assay [1] (ELISA of supernatants) of 10 nM. Also, at IKZF2 [5], the kinact is 3.89e-05 s⁻¹.

Turning to `O=C1CC[C@H](N2Cc3c(ccc(C[C@H]4OCCC[C@@H]4N[C@H]4CC[C@H](F)CC4)c3F)C2=O)C(=O)N1` [Example 369], the DC50 on IKZF1 was > 1000 nM; at SALL4, > 10000 nM; on IKZF2 [3], 0.1 nM; at IKZF2 [4] (HEK293 HiBiT), 5 nM. Besides, the maximal fold induction in assay [1] (setting [6]) is 2; in assay [1] (setting [7]), ≥ 1.9. For the same compound, the EC50 in assay [1] (ELISA of supernatants) worked out at 0.03 nM. Also, the Dmax stood at 90% on IKZF2 [3] and 97% at IKZF2 [4] (setting [8]). Moreover, the kinact at IKZF2 [5] is 0.000106 s⁻¹.

Take `CC(N[C@H]1CCCC[C@@H]1Cc1ccc2c(c1F)CN(C1CCC(=O)NC1=O)C2=O)C1CCOCC1` (single isomer, unassigned) [Example 287]: the Dmax on IKZF1 was 47%; on IKZF2 [2], 92%; at IKZF2 [3], 96%; on IKZF2 [4] (setting [8]), 95%. For the same compound, the DC50 on IKZF1 is 66 nM; on SALL4, > 10000 nM; at IKZF2 [2], 2 nM; at IKZF2 [3], 0.6 nM; on IKZF2 [4] (HEK293 HiBiT) it was 1 nM. Besides, the maximal fold induction was 2.5 in assay [1] (setting [6]) and ≥ 1.9 in assay [1] (setting [7]). In assay [1] (ELISA of supernatants), this compound displayed an EC50 of 0.6 nM. Also, on IKZF2 [5], the kinact is 0.000189 s⁻¹.

By Dmax is commonly meant the greatest extent of degradation seen. Low readings indicate shallow degradation, high ones deep degradation. As a reminder, the EC50 is the concentration that produces a half-maximal response. A higher EC50 goes with a need for much substance. In general, kinact refers to the maximal first-order rate at which the target is inactivated.
